Reference: patent publication US12180226B2, “Spirotricycle RIPK1 inhibitors and methods of uses thereof” (Merck Sharp & Dohme LLC, priority 2021, dated 2024)
Where a name gives a salt, the structure may show the parent alone.

Molecular target: RIPK1 (recombinant GST-RIPK1 kinase domain, residues 1-327) (Homo sapiens (Human), UniProt Q13546)
Assay: RIPK1-ADP-Glo Enzymatic Assay
Type: biochemical
Settings: ADP-Glo; 25 nM GST-RIPK1, 300 μM ATP; assay lower limit ~25 nM; read-out: RIPK1 V0 Ec50
Outline: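 Using dephosphorylated MBP (3 μM) as substrate and 300 μM ATP, 25 nM baculovirus-produced enzyme was reacted for 150 min after a 30-min compound pre-incubation. Luminescent ADP detection followed; lower confidence limit ~25 nM.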

Sequence of RIPK1 (recombinant GST-RIPK1 kinase domain, residues 1-327) (Q13546 1-327): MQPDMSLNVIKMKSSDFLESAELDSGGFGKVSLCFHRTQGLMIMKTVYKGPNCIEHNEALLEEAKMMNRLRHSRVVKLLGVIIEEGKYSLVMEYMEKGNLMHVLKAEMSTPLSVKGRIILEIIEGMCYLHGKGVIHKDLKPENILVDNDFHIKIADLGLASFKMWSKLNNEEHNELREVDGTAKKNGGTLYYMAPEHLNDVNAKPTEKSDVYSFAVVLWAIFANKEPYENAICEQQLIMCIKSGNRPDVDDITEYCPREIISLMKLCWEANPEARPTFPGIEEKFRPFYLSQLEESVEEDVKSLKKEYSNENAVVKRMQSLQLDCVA

| SMILES | EC50 [nM] |
| --- | --- |
| CSc1cnc(N2CCC3(CC2)O[C@@H]2CC[C@@H](c4cc(F)cc(F)c4)N2C3=O)nc1 [Example 4.55, (5′S,7a′R)-5′-(3,5-difluorophenyl)-1-[5-(methylsulfanyl)pyrimidin-2-yl]tetrahydro-3′H-spiro[piperidine-4,2′-pyrrolo[2,1-b] [1,3]oxazol]-3′-one] | 246 |
| O=C(C1CCCC1)N1CCC2(CC1)O[C@@H]1CC[C@@H](c3cc(F)cc(F)c3)N1C2=O [Example 5.32, (5′S,7a′R)-1-(cyclopentane-carbonyl)-5′-(3,5-difluoro-phenyl)tetrahydro-3′H-spiro[piperidine-4,2′-pyrrolo[2,1-b]oxazol]-3′-one] | 409 |
| COc1nc(N2CCC3(CC2)O[C@@H]2CC[C@@H](c4cc(F)cc(F)c4)N2C3=O)ncc1C [Example 4.59, (5′S,7a′R)-5′-(3,5-difluorophenyl)-1-(4-methoxy-5-methylpyrimidin-2-yl)tetrahydro-3′H-spiro[piperidine-4,2′-pyrrolo[2,1-b] [1,3]oxazol]-3′-one] | 149 |
| Cc1onc(C(=O)N2CCC3(CC2)O[C@@H]2CC[C@@H](c4cc(F)cc(F)c4)N2C3=O)c1C [Example 6.57, (5′S,7a′R)-5′-(3,5-difluorophenyl)-1-(4,5-dimethyl-1,2-oxazole-3-carbonyl) tetrahydro-3′H-spiro [piperidine-4,2′-pyrrolo[2,1-b][1,3]-oxazol]-3′-one] | 426 |
| N#Cc1cnc(N2CCC3(CC2)O[C@@H]2CC[C@@H](c4ccccc4)N2C3=O)c(F)c1 [Example 4.72, 5-fluoro-6-[(5′S,7a′R)-3′-oxo-5′-phenyltetrahydro-1H,3′H-spiro[piperidine-4,2′-pyrrolo[2,1-b] [1,3]oxazol]-1-yl]pyridine-3-carbonitrile] | 29.8 |
| O=C(c1ccnnc1)N1CCC2(CC1)O[C@@H]1CC[C@@H](c3cc(F)cc(F)c3)N1C2=O [Example 6.99, (5′S,7a′R)-5′-(3,5-difluorophenyl)-1-(pyridazine-4-carbon-yl)tetrahydro-3′H-spiro[piperidine-4,2′-pyrrolo[2,1-b][1,3]-oxazol]-3′-one] | 146 |
| C#Cc1cccc(C(=O)N2CCC3(CC2)O[C@@H]2CC[C@@H](c4ccccc4)N2C3=O)c1 [Example 6.141, (5′S,7a′R)-1-(3-ethynylbenzene-1-carbonyl)-5′-phenyl-tetrahydro-3′H-spiro [piperidine-4,2′-pyrrolo[2,1-b][1,3]oxazol]-3′-one] | < 25 |
| O=C(c1nc2ncccc2s1)N1CCC2(CC1)O[C@@H]1CC[C@@H](c3cc(F)cc(F)c3)N1C2=O [Example 6.26] | 321 |
| O=C1N2[C@@H](CC[C@H]2c2cc(F)cc(F)c2)OC12CCN(c1ncc(Cl)cn1)CC2 [Example 4.63, (5′S,7a′R)-1-(5-chloropyrimidin-2-yl)-5′-(3,5-difluorophenyl)tetrahydro-3′H-spiro[piperidine-4,2′-pyrrolo[2,1-b] [1,3]oxazol]-3′-one] | 48.6 |
| O=C1N2[C@@H](CC[C@H]2c2ccccc2F)OC12CCN(c1ncnc3ccnn13)CC2 [Example 4.252, (5′S,7a′R)-5′-(2-fluorophenyl)-1-(pyrazolo[1,5-a] [1,3,5]triazin-4-yl)tetrahydro-3′H-spiro[piperidine-4,2′-pyrrolo[2,1-b] [1,3]oxazol]-3′-one] | < 25 |
| N#Cc1ccc(N2CCC3(CC2)O[C@@H]2CC[C@@H](c4cc(F)cc(F)c4)N2C3=O)c(F)c1 [Example 4.24, 4-[(5′S,7a′R)-5′-(3,5-difluorophenyl)-3′-oxotetrahydro-1H,3′H-spiro[piperidine-4,2′-pyrrolo[2,1-b] [1,3]oxazol]-1-yl]-3-fluorobenzonitrile] | < 25 |
| N#Cc1cncc([C@@H]2CC[C@H]3OC4(CCN(c5ccnc6c(F)cnn56)CC4)C(=O)N32)c1 [Example 4.127, 5-[(5′S,7a′R)-1-(3-fluoropyrazolo[1,5-a]pyrimidin-7-yl)-3′-oxotetrahydro-3′H-spiro[piperidine-4,2′-pyrrolo[2,1-b] [1,3]oxazol]-5′-yl]pyridine-3-carbonitrile] | < 25 |
| O=C(c1ccc(-n2nccn2)cc1)N1CCC2(CC1)O[C@@H]1CC[C@@H](c3cc(F)cc(F)c3)N1C2=O [Example 6.21] | 881 |
| N#Cc1cc(N2CCC3(O[C@@H]4CC[C@@H](c5ccccc5)N4C3=O)C(F)C2)ncn1 (single isomer, unassigned) [Example 4.95, 6-((3[S or R],4[R or S], 5′S,7a′R)-3-fluoro-3′-oxo-5′-phenyltetrahydro-3′H-spiro[piperidine-4,2′-pyrrolo[2,1-b]oxazol]-1-yl)pyrimidine-4-carbonitrile] | 58.3 |
| O=C(c1cc(C(F)(F)F)cnn1)N1CCC2(CC1)O[C@@H]1CC[C@@H](c3cc(F)cc(F)c3)N1C2=O [Example 6.34, (5′S,7a′R)-5′-(3,5-difluorophenyl)-1-[5-(trifluoromethyl)pyrid-azine-3-carbonyl] tetrahydro-3′H-spiro [piperidine-4,2′-pyrrolo[2,1-b][1,3]oxazol]-3′-one] | 550 |
| O=C1N2[C@@H](CC[C@H]2c2ccccc2F)OC12CN(c1ccnc3ccnn13)C2 [Example 4.108, (5′S,7a′R)-5′-(2-fluorophenyl)-1-(pyrazolo[1,5-a]pyrimidin-7-yl)tetrahydro-3′H-spiro[azetidine-3,2′-pyrrolo[2,1-b]oxazol]-3′-one] | 26.9 |
| O=C(c1ccoc1)N1CCC2(CC1)O[C@@H]1CC[C@@H](c3ccccc3)N1C2=O [Example 6.145, (5′S,7a′R)-1-(furan-3-carbonyl)-5′-phenyl-tetrahydro-3′H-spiro [piperidine-4,2′-pyrrolo[2,1-b][1,3]oxazol]-3′-one] | < 25 |
| Cc1cc(N2CCC3(CC2)O[C@@H]2CC[C@@H](c4ccccc4)N2C3=O)cc(C#N)n1 [Example 4.16, 6-methyl-4-[(5′S,7a′R)-3′-oxo-5′-phenyltetrahydro-1H,3′H-spiro[piperidine-4,2′-pyrrolo[2,1-b] [1,3]oxazol]-1-yl]pyridine-2-carbonitrile] | < 25 |
| Cc1nc(N2CCC3(CC2)O[C@@H]2CC[C@@H](c4cc(F)cc(F)c4)N2C3=O)ncc1OC(F)F [Example 4.58, (5′S,7a′R)-1-[5-(difluoromethoxy)-4-methylpyrimidin-2-yl]-5′-(3,5-difluorophenyl)tetrahydro-3′H-spiro[piperidine-4,2′-pyrrolo[2,1-b] [1,3]oxazol]-3′-one] | 45.9 |
| Cc1c(Br)ccnc1C(=O)N1CCC2(CC1)O[C@@H]1CC[C@@H](c3cc(F)cc(F)c3)N1C2=O [Example 6.80, (5′S,7a′R)-1-(4-bromo-3-methylpyridine-2-carbonyl)-5′-(3,5-difluorophenyl)tetra-hydro-3′H-spiro [piperidine-4,2′-pyrrolo[2,1-b][1,3]-oxazol]-3′-one] | 153 |
| CN(C)C(=O)c1ccc(N2CCC3(CC2)O[C@@H]2CC[C@@H](c4ccccc4)N2C3=O)nc1 [Example 4.167, N,N-dimethyl-6-[(5′S,7a′R)-3′-oxo-5′-phenyltetrahydro-1H,3′H-spiro[piperidine-4,2′-pyrrolo[2,1-b] [1,3]oxazol]-1-yl]pyridine-3-carboxamide] | 259 |

Now from value to compound:

| EC50 [nM] | SMILES |
| --- | --- |
| 40.3 | O=C1N2[C@@H](CC[C@H]2c2ccccc2)OC12CCN(c1ncc(-c3cscn3)cn1)CC2 [Example 21.13, (5′S,7a′R)-5′-phenyl-1-[5-(1,3-thiazol-4-yl)pyrimidin-2-yl]tetrahydro-3′H-spiro[piperidine-4,2′-pyrrolo[2,1-b][1,3]oxazol]-3′-one] |
| < 25 | N#Cc1ccc(N2CCC3(CC2)O[C@@H]2CC[C@@H](c4ccccc4)N2C3=O)c2ccnn12 [Example 13.19, 4-((5′S,7a′R)-3′-oxo-5′ phenyltetrahydro-3′H-spiro[piperidine-4,2′-pyrrolo[2,1-b]oxazol]-1-yl)pyrazolo[1,5-a]pyridine-7-carbonitrile, TFA salt] |
| < 25 | Cc1ccc([C@@H]2CC[C@H]3OC4(CCN(C(=O)c5ccccc5)CC4)C(=O)N32)cc1F [Example 17.15, (5′S,7a′R)-1-(benzenecarbonyl)-5′-(3-fluoro-4-methylphenyl)tetrahydro-3′H-spiro[piperidine-4,2′-pyrrolo[2,1-b][1,3]oxazol]-3′-one] |
| 34.4 | O=C(c1ccccc1)N1CCC2(CC1)O[C@@H]1CC[C@@H](c3cnccn3)N1C2=O [Example 17.1, (5′S,7a′R)-1-benzoyl-5′-(pyrazin-2-yl)tetrahydro-3′H-spiro[piperidine-4,2′-pyrrolo[2,1-b]oxazol]-3′-one, TFA] |
| 243 | O=C1N2[C@@H](CC[C@H]2c2cc(F)cc(F)c2)OC12CCN(C(c1ccccc1)C(F)F)CC2 (single isomer, unassigned) [Example 22.2, (5′S,7a′R)-1-(2,2-Difluoro-1-phenylethyl)-5′-(3,5-difluorophenyl)tetrahydro-3′H-spiro[piperidine-4,2′-pyrrolo[2,1-b]oxazol]-3′-one] |
| < 25 | O=C1N2[C@@H](CC[C@H]2c2cc(F)cc(F)c2)OC12CCN(c1cccc3ncnn13)CC2 [Example 13.2, (5′S,7a′R)-1-([1,2,4]triazolo[1,5-a]pyridin-5-yl)-5′-(3,5-difluorophenyl)tetrahydro-3′H-spiro[piperidine-4,2′-pyrrolo[2,1-b]oxazol]-3′-one, TFA salt] |
| 345 | O=C1N2[C@@H](CC[C@H]2c2ccccc2F)OC12CN(S(=O)(=O)c1ccc(F)cc1)C2 [Example 8.7, (5′S,7a′R)-5′-(2-fluorophenyl)-1-((4-fluorophenyl)sulfonyl) tetrahydro-3′H-spiro[azetidine-3,2′-pyrrolo[2,1-b]oxazol]-3′-one] |
| 33.7 | O=C1N2[C@@H](CC[C@H]2c2ccccc2)OC12CCN(c1ccnc(-c3ccccc3)n1)CC2 [Example 11.14, (5′S,7a′R)-5′-phenyl-1-(2-phenylpyrimidin-4-yl)tetrahydro-3′H-spiro[piperidine-4,2′-pyrrolo[2,1-b][1,3]oxazol]-3′-one] |
